The text below walks through data of patent publication US10407467B2, “Polymyxin derivatives and their use in combination therapy together with different antibiotics” (priority 2013, dated 2019).

Assay [1] concerns Acinetobacter baumannii. Nature of the assay: MIC, compound in combination with a second agent (broth microdilution). The class given is cell-based. The following applies: 1:1 (wt:wt) combination with Rifampicin, MIC = total drug concentration. In outline: (§1)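 Broth microdilution with inoculum from 18-24 h Mueller-Hinton agar colonies adjusted to 0.5 McFarland, up to four strains per species. Compound combined 1:1 w/w with second agent (e.g. rifampicin), mass as salt form; MIC is total drug concentration. Duplicates, lower value reported if within 2-fold; modal value for repeat tests.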

For assay [2], the system named is Escherichia coli. Described as above. The class given is cell-based. To be noted: 1:1 (wt:wt) combination with Rifampicin, MIC = total drug concentration. In outline:
as §1

The test system of assay [3] is Klebsiella pneumoniae. The assay is described as above. To be noted: 1:1 (wt:wt) combination with Rifampicin; MIC = total drug concentration; strain CCUG-59348. The format is cell-based. In outline:
as §1

Assay [4] concerns Pseudomonas aeruginosa. Described as above. The format is cell-based. To be noted: 1:1 (wt:wt) combination with Rifampicin, MIC = total drug concentration. In outline:
as §1

In assay [5] the test system is P. aeruginosa ATCC27853. The class given is in vivo, Pseudomonas aeruginosa. To be noted: ATCC27853, in vivo, iv, 5 mg/kg, 6 h. How it is done:
Compounds were administered in solution by intravenous (IV) bolus injection into the lateral tail vein. […] At 1 hour post infection, 4 animals were humanely euthanized using pentabarbitone overdose to provide a pre-treatment control group. At 9 hours post infection, the clinical condition of all animals was assessed prior to them being humanely euthanized by pentabarbitone overdose. Animal weight was determined before both thighs were removed and weighed individually. Individual thigh tissue samples were homogenized in ice cold sterile phosphate buffered saline. Thigh homogenates were then quantitatively cultured onto CLED agar and incubated at 37° C. for 24 hours before colonies were counted.

Where a name gives a salt, the structure may show the parent alone. Bridge positions count the residues as written; N and C are the ends. Square brackets hold non-standard residues; d marks the D form. Peptide text beside a SMILES is read from it. * marks the point of attachment. ξ: configuration not given here. X12 = CC(C)C[C@H](N)[C@H](O)C(=O)*; Thr(3ξ) = CC(O)[C@H](N)C(=O)O; Dab = NCC[C@H](N)C(=O)O

For `CC(C)C[C@@H]1NC(=O)[C@@H](Cc2ccccc2)NC(=O)[C@H](CCN)NC(=O)[C@@H](NC(=O)[C@H](CCN)NC(=O)[C@@H](NC(=O)[C@@H](O)[C@@H](N)CC(C)C)C(C)O)CCNC(=O)[C@H](C(C)O)NC(=O)[C@H](CCN)NC(=O)[C@H](CCN)NC1=O` (stereo partly drawn) [Example 41, (2S,3S)-3-Amino-2-hydroxy-5-methylhexanoyl polymyxin B nonapeptide, trifluoroacetate salt] (X12-[Thr(3ξ)][Dab][Dab][Dab][dF]L[Dab][Dab][Thr(3ξ)]; lactam 3-C), the “MIC A. baumannii ATCC BAA-747” value in assay [1] (strain ATCC BAA-747) is on record as ≤0.06 micrograms/mL. Further, in assay [1] (strain CCUG57249), the “MIC A. baumannii CCUG57249” value is recorded as ≤0.06 micrograms/mL. Also, the “MIC A. baumannii NCTC 13423” value in assay [1] (strain NCTC 13423) is listed as ≤0.06 micrograms/mL. For the same compound, the “MIC A. baumannii NCTC 13424” value in assay [1] (strain NCTC 13424) was ≤0.06 micrograms/mL. Further, in assay [2] (strain ATCC25922), the “MIC E. coli ATCC25922” value is ≤0.06 micrograms/mL. Moreover, in assay [2] (strain NCTC9001), the “MIC E. coli NCTC9001” value is on record as 0.125 micrograms/mL. For the same compound, the “MIC K. pneumoniae CCUG-59348” value in assay [3] was 2 micrograms/mL. Besides, the “MIC P. aeruginosa ATCC 27853” value in assay [4] (strain ATCC 27853) came out at 0.125 micrograms/mL. Also, the “MIC P. aeruginosa ATCC CRM-9027” value in assay [4] (strain ATCC CRM-9027) came to 0.25 micrograms/mL. In addition, the “MIC P. aeruginosa ATCC-47” value in assay [4] (strain ATCC-47) was ≤0.06 micrograms/mL. Further, the “MIC P. aeruginosa CCUG 59626” value in assay [4] (strain CCUG 59626) was 0.125 micrograms/mL. In addition, in assay [5], the “log reduction in bacterial counts compared to non-treated control” value stood at 2.73 log.
